These results are taken from patent publication US20140155415A1, “BENZ[…] BENZODIOXINE COMPOUNDS THAT INTERACT WITH G[…] FOR THE TREATMENT OF DIABETES” (priority 2011, published 2014).

Where two headings read alike, the source gives them in different places. Bounds are passed on as bounds.

As usually defined, the EC50 is the concentration giving half of the maximal effect. A lower EC50 goes with a more potent agent. One may read the IC50 as the concentration at which inhibition is half-maximal.

Test [1] concerns the target T1, GK-GKRP (glucokinase / glucokinase regulatory protein) (Homo sapiens, UniProt Q14397).
T1 sequence (Q14397 1-625): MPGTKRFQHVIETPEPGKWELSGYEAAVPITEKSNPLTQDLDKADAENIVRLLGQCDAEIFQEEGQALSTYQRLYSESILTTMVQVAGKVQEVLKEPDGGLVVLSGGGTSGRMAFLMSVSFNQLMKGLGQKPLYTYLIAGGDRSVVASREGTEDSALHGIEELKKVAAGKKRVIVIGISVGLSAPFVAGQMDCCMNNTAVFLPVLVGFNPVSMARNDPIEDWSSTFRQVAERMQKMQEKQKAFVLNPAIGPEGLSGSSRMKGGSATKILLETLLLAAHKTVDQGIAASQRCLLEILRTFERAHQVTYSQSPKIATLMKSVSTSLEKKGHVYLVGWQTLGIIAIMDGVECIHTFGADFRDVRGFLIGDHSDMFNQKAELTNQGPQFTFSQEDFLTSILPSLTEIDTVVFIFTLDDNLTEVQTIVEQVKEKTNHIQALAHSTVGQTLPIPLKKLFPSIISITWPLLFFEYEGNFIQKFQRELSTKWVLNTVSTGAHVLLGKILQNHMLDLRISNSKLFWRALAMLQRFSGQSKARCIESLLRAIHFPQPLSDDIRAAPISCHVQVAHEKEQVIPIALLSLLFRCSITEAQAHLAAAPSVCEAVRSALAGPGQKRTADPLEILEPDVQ
Nature of the test: GKRP LC MS/MS Biochemical Assay (LCMS/MS). Particulars: formation of 13C-glucose-6-phosphate from 13C-glucose by LC MS/MS, human His-hepatic GK, fructose-6-phosphate. How it is done:
GKRP LC MS/MS Biochemical Assay (LCMS/MS)
This assay is used to directly measure the formation of ^13C-glucose-6-phosphate from ^13C-glucose by LC MS/MS. Begin by preparing the following solutions: Compound Buffer (CB): 50 mM Tris, pH 7.5/4 mM MgCl2/6% DMSO/fresh 10 mM DTT from 1M frozen stock. Enzyme Buffer (EB): 50 mM Tris, pH 7.5/4 mM MgCl2/6% DMSO/fresh 0.1% BSA/fresh 0.01% Brij-35 (10% BSA and 1% Brij-35 stock). GK (Glucokinase) Working Stock (5×): Dilute human His-hepatic GK to 30 nM in EB buffer. […] Seal the plate and incubate for 30 minutes at room temperature while mixing. After 30 minutes add 10 μl of GK Working Stock (5×). Re-seal the plate and incubate for another 30 minutes at room temperature while mixing. After the second 30 minutes, stop the reaction by the addition of 50 μl of 100% acetonitrile, seal, and mix for 5-10 minutes. Run 10 μl of this sample through the LC MS/MS (API 3200, Applied Biosystems, Carlsbad, Calif.). […]
(§1) In the Examples, the assays are referred to as “LCMS/MS” or “Binding.”

The target of test [2] is T2, GK-GKRP (interaction between glucokinase and glucokinase regulatory protein) (Homo sapiens, UniProt Q14397).
T2 construct: made in house; host or cells: GKRP: baculovirus system
T2 sequence (Q14397 1-625): T1 sequence (Q14397 1-625)
Nature of the test: GK-GKRP Binding Assay (Binding), AlphaScreen. The procedure: GK-GKRP Binding Assay Protocol (Binding)
This assay is used to directly measure the interaction between glucokinase (GK) and glucokinase regulatory protein (GKRP). Begin by preparing the following solutions. Assay Buffer: 20 mM Tris, pH 7.5/0.05% BSA/1 mM DTT/1 μM sorbitol-6-phosphate. […] Combine the following reagents in a white 96-well half area plate. Pipette 14 μl of the diluted avi-tagged GKRP into each well. Add 1 μl of compound to be tested and incubate at room temperature for 20 minutes. After 20 minutes, add 5 μl of assay buffer containing 6 nM GK-fluorescein. […] Incubate in a dark room for 2 hours at room temperature. After 2 hours read the plate using an Envision plate reader (Perkin Elmer, Waltham Mass.).
Recombinant human glucokinase (hepatic) was purified and formulated in 50 mM Tris (pH 7.5), 150 mM NaCl and 20 mM glucose previous to labeling with fluorescein. […] Unreacted dye was removed by extensive dialysis into the final formulation buffer: 25 mM Tris (pH 7.2), 150 mM NaCl, 10% glycerol and 2 mM DTT. The human glucokinase regulatory protein construct was designed with a C-terminal avitag and was expressed in a baculovirus system. Purified GKRP was incubated overnight with recombinant biotin ligase in the presence of D-biotin, ATP and MgCl2. GKRP was isolated from reaction components by chromatography on a Superdex 200 size exclusion column into: 50 mM HEPES, 150 mM NaCl and 5 mM DTT. […] Proteins were quantitated according to their calculated molar extinction coefficients at A280 and were stored at −80° C.
as §1
(In Alpha technology, singlet oxygen from a donor bead excites a nearby acceptor bead.)

Setting [3] is: avi-tagged GKRP, GK-fluorescein, AlphaScreen beads, 1 μM sorbitol-6-phosphate, read-out: GK-GKRP IC50 (Binding).

In turn, `Cc1ccccc1C(NS(=O)(=O)c1ccc2c(c1)OCCCO2)c1cc2ccccc2o1` (racemic) [Example 2, N-(1-benzofuran-2-yl(2-methylphenyl)methyl)-3,4-dihydro-2H-1,5-benzodioxepine-7-sulfonamide] yielded an EC50 in test [1] of 110 nM.

As to `O=S(=O)(NC(c1cc2ccccc2o1)c1ccccc1CCO)c1ccc2c(c1)OCCCO2` (racemic) [Example 16, N-(1-benzofuran-2-yl(2-(2-hydroxyethyl)phenyl)methyl)-3,4-dihydro-2H-1,5-benzodioxepine-7-sulfonamide], the concentration for a half-maximal effect (EC50) in test [1] amounted to 3200 nM.

In turn, `O=S(=O)(NC(c1cccc(F)c1)c1cc2ccccc2o1)c1ccc2c(c1)OCCCO2` (racemic) [Example 24, N-(1-benzofuran-2-yl(3-fluorophenyl)methyl)-3,4-dihydro-2H-1,5-benzodioxepine-7-sulfonamide] yielded an EC50 in test [1] of 1800 nM.

Consider `COc1cccnc1C(NS(=O)(=O)c1ccc2c(c1)OCCCO2)c1nc2cccnc2s1` (racemic) [Example 69, N-((3-methoxy-2-pyridinyl)([1,3]thiazolo[5,4-b]pyridin-2-yl)methyl)-3,4-dihydro-2H-1,5-benzodioxepine-7-sulfonamide], for which, in test [2] (setting [3]), the IC50 came out at 1500 nM. `COc1ccc(S(=O)(=O)NC(c2cc3ccccc3s2)c2ccccc2SC)cc1OC` (racemic) [Example 74] returned a 50% inhibitory concentration (IC50) in test [2] of 2700 nM. The same measure, in the same setting: under `O=S(=O)(N[C@@H](c1cc2ccccc2s1)c1ccccc1Cl)c1ccc2c(c1)OCC(O)CO2` (mixture of isomers) [Example 77, N—((R)-1-Benzothiophen-2-yl(2-chlorophenyl)methyl)-3-hydroxy-3,4-dihydro-2H-1,5-benzodioxepine-7-sulfonamide] stands 97 nM. For the compound `O=S(=O)(N[C@@H](c1cc2ccccc2s1)c1ccccc1Cl)c1ccc2c(c1)OCC(F)CO2` (mixture of isomers) [Example 78, N—((R)-1-Benzothiophen-2-yl(2-chlorophenyl)methyl)-3-fluoro-3,4-dihydro-2H-1,5-benzodioxepine-7-sulfonamide], the concentration for half-maximal inhibition (IC50) in test [2] (setting [3]) turned out to be 47 nM. Same read-out and setting: next, `Nc1cccc(C(NS(=O)(=O)c2ccc3c(c2)OCCCO3)c2cc3ccccc3o2)n1` (racemic) [Example 79, N-((6-amino-2-pyridinyl)(1-benzofuran-2-yl)methyl)-3,4-dihydro-2H-1,5-benzodioxepine-7-sulfonamide]: 98 nM; `O=S(=O)(NC(c1ccccc1)c1cc2ccnc(Cl)c2s1)c1ccc2c(c1)OCCCO2` (racemic) [Example 80, N-((7-Chlorothieno[2,3-c]pyridin-2-yl)(phenyl)methyl)-3,4-dihydro-2H-1,5-benzodioxepine-7-sulfonamide]: 1100 nM. On the same count and under the same terms, next, `Cc1cccnc1[C@H](NS(=O)(=O)c1ccc2c(c1)OCCCO2)c1cc2ccccc2o1` (single isomer, unassigned) [Example 26 Peak #1]: above 33000 nM; `CSc1ccccc1[C@H](NS(=O)(=O)c1ccc2c(c1)OCCCO2)c1nc2cccnc2s1` (single isomer, unassigned) [Example 65 Peak #1]: 900 nM. Still for that read-out and setting: under `COc1ccccc1[C@H](NS(=O)(=O)c1ccc2c(c1)OCCCO2)c1nc2cccnc2s1` (single isomer, unassigned) [Example 67 Peak #1] stands 2800 nM.

Consider `O=S(=O)(N[C@H](c1nc2cccnc2s1)c1ccccc1Cl)c1ccc2c(c1)OCCCO2` (single isomer, unassigned) [Example 68 Peak #1], for which the IC50 in test [2] (setting [3]) came out at 2000 nM. On to `O=S(=O)(N[C@@H](c1ccccc1)c1cc2cccc(-c3ccccn3)c2s1)c1ccc2c(c1)OCCCO2` (single isomer, unassigned) [Example 71 Peak #1], for which the IC50 in test [2] (setting [3]) came to 790 nM. For the compound `O=S(=O)(N[C@@H](c1cc2ccccc2s1)c1ccccc1Cl)c1ccc2c(c1)OCC(F)(F)CO2` [Example 76, N—((R)-1-Benzothiophen-2-yl(2-chlorophenyl)methyl)-3,3-difluoro-3,4-dihydro-2H-1,5-benzodioxepine-7-sulfonamide], the IC50 in test [2] (setting [3]) was 620 nM.

For `O=S(=O)(N[C@@H](c1cc2cccc(-c3cc(C(O)(C(F)(F)F)C(F)(F)F)ccn3)c2s1)c1ccccc1Cl)c1ccc2c(c1)OCCCO2` [Example 81, N—((R)-(2-Chlorophenyl)(7-(4-(2,2,2-trifluoro-1-hydroxy-1-(trifluoromethyl)ethyl)-2-pyridinyl)-1-benzothiophen-2-yl)methyl)-3,4-dihydro-2H-1,5-benzodioxepine-7-sulfonamide], in test [2] (setting [3]), the IC50 worked out at 87 nM. As for `COc1ccc(S(=O)(=O)N[C@@H](c2cc3cccc(-c4cc(C(O)(C(F)(F)F)C(F)(F)F)ccn4)c3s2)c2ccccc2Cl)cc1OC` [Example 82, N—((R)-(2-Chlorophenyl)(7-(4-(2,2,2-trifluoro-1-hydroxy-1-(trifluoromethyl)ethyl)-2-pyridinyl)-1-benzothiophen-2-yl)methyl)-3,4-dimethoxybenzenesulfonamide], the IC50 in test [2] (setting [3]) stood at 907 nM. Turning to `C[C@@](O)(c1ccnc(-c2cccc3cc([C@H](NS(=O)(=O)c4ccc5c(c4)OCCCO5)c4ccccc4Cl)sc23)c1)C(F)(F)F` [Example 83, N—((R)-(2-Chlorophenyl)(7-(4-((1R)-2,2,2-trifluoro-1-hydroxy-1-methylethyl)-2-pyridinyl)-1-benzothiophen-2-yl)methyl)-3,4-dihydro-2H-1,5-benzodioxepine-7-sulfonamide], in test [2] (setting [3]), the IC50 amounted to 38 nM.

Consider `COc1ccc(S(=O)(=O)N[C@@H](c2cc3cccc(-c4cc([C@@](C)(O)C(F)(F)F)ccn4)c3s2)c2ccccc2Cl)cc1OC` [Example 84, N—((R)-(2-Chlorophenyl)(7-(4-((1R)-2,2,2-trifluoro-1-hydroxy-1-methylethyl)-2-pyridinyl)-1-benzothiophen-2-yl)methyl)-3,4-dimethoxybenzenesulfonamide], for which, in test [2] (setting [3]), the IC50 amounted to 276 nM.

Regarding `C[C@](O)(c1ccnc(-c2cccc3cc([C@H](NS(=O)(=O)c4ccc5c(c4)OCCCO5)c4ccccc4Cl)sc23)c1)C(F)(F)F` [Example 85, N—((R)-(2-Chlorophenyl)(7-(4-((1S)-2,2,2-trifluoro-1-hydroxy-1-methylethyl)-2-pyridinyl)-1-benzothiophen-2-yl)methyl)-3,4-dihydro-2H-1,5-benzodioxepine-7-sulfonamide], the half-maximal inhibitory concentration (IC50) in test [2] (setting [3]) is 23 nM. Consider `COc1ccc(S(=O)(=O)N[C@@H](c2cc3cccc(-c4cc([C@](C)(O)C(F)(F)F)ccn4)c3s2)c2ccccc2Cl)cc1OC` [Example 86, N—((R)-(2-Chlorophenyl)(7-(4-((1S)-2,2,2-trifluoro-1-hydroxy-1-methylethyl)-2-pyridinyl)-1-benzothiophen-2-yl)methyl)-3,4-dimethoxybenzenesulfonamide], for which the IC50 in test [2] (setting [3]) was 72 nM. Still for that read-out and setting: next, `Nc1cc(C(NS(=O)(=O)c2ccc3c(c2)OCCCO3)c2cc3ccccc3o2)ccn1` (stereo not shown) [Example 87, N-((2-Amino-4-pyridinyl)(1-benzofuran-2-yl)methyl)-3,4-dihydro-2H-1,5-benzodioxepine-7-sulfonamide]: 4880 nM.
